Test [1] concerns c-myc in Human AML MV4-11 cells. Kind of test: Inhibition of cMYC expression (mRNA, real-time PCR) in MV4-11 cells. It counts as cell-based. Conditions: 3 h treatment, cMYC mRNA by real-time PCR. An outline of the steps:
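MV4-11 cells in IMDM with 10% FBS were treated with increasing compound concentrations (DMSO 0.1%) for 3 h at 37 °C, in triplicate. Isolated mRNA was quantified by one-step TaqMan RT-qPCR, cMYC Ct normalized to cyclophilin, and fold expression given relative to DMSO control.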
In general terms: Real-time PCR tracks product formation cycle by cycle.

In another test the test system is Human AML MV-4-11 cells. The test can be described thus: Inhibition of cell proliferation in MV4-11 cells (CellTiter Aqueous One). In kind it is cell-based. As to conditions: for IC50: MV4-11, 72 h; for Cell Proliferation activity: 72 h. An outline of the steps:
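MV4-11 cells, 5×10^4 per well in IMDM with 10% FBS, were exposed to increasing compound concentrations or 0.1% DMSO for 72 h at 37 °C in triplicate. Viability was read by MTS (CellTiter Aqueous One) absorbance at 490 nm after 3-4 h. IC50 was derived from background-corrected signal relative to DMSO.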

Another test has as its system hIL-6 mRNA. Kind of test: Inhibition of hIL-6 mRNA transcription in LPS-stimulated U937 macrophages. In kind it is cell-based, Human. Conditions: Homo sapiens, U-937, PMA-differentiated U937 cells, 1 h pretreatment, LPS 3 h, read-out: IL-6 activity. Summed up: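 PMA-differentiated U937 macrophages (60 ng/mL PMA, 3 days) pretreated 1 h with compound in 0.1% DMSO, then stimulated with 1 ug/mL E. coli LPS for 3 h at 37° C. IL-6 mRNA quantified by one-step TaqMan qRT-PCR, normalized to cyclophilin; fold expression relative to control, triplicate wells.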

For test [2], the target named is Brd4 bromodomain 1 (BRD4(1)) (Homo sapiens, UniProt O60885). Kind of test: Inhibition of tetra-acetylated histone H4 binding to Brd4 bromodomain 1, measured by FRET (HTRF). Details: made in house; host or cells: E. coli BL21(DE3). Conditions: 2 h at room temperature. An outline of the steps:
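Inhibition was read as a drop in 665 nm relative to 620 nm HTRF signal after 2 h at room temperature, with IC50 from dose-response curves in duplicate wells. Reactions held 200 nM E. coli-expressed His-tagged bromodomain and 25-50 nM biotinylated tetra-acetylated histone H4 peptide. Buffer was 30 mM HEPES pH 7.4 with KF, CHAPS, BSA and 0.2% DMSO.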
In general terms: Time-resolved FRET reads energy transfer from a long-lived donor to a nearby acceptor.

Consider `Cc1ccncc1-c1cc(-c2c(C)noc2C)cc2cn[nH]c12` [Example Compound 119, 3,5-dimethyl-4-(7-(4-methyl-pyridin-3-yl)-1H-indazol-5-yl)isoxazole], for which the IC50 is 300 to 3000 nM in test [1], 300 to 3000 nM in the test on Human AML MV-4-11 cells, at most 300 nM with hIL-6 mRNA and at most 300 nM in test [2].
Consider `Cc1nn(C)cc1-c1cc(-c2c(C)noc2C)cc2cn[nH]c12` [Example Compound 120, 4-(7-(1,3-dimethyl-1H-pyrazol-4-yl)-1H-indazol-5-yl)-3,5-dimethyl isoxazole], for which the IC50 is at most 300 nM in test [1], 300 to 3000 nM with Human AML MV-4-11 cells, at most 300 nM in the test with hIL-6 mRNA and at most 300 nM in test [2].
Take `Cc1nc2c(-c3cccc(C#N)c3C)cc(-c3c(C)noc3C)cc2[nH]1` [Example Compound 123, 3-(6-(3,5-dimethyl-isoxazol-4-yl)-2-methyl-1H-benzo[d]imidazol-4-yl)-2-methyl-benzonitrile]: the IC50 in test [1] is at most 300 nM; in the test with Human AML MV-4-11 cells, 300 to 3000 nM; in the test with hIL-6 mRNA it was at most 300 nM; in test [2], at most 300 nM.
On to `Cc1nc2c(-c3ccc4scnc4c3)cc(-c3c(C)noc3C)cc2[nH]1` [Example Compound 124, 4-(4-(benzo[d]thiazol-5-yl)-2-methyl-1H-benzo[d]imidazol-6-yl)-3,5-dimethyl isoxazole], for which the IC50 in test [1] is 300 to 3000 nM; with Human AML MV-4-11 cells, 300 to 3000 nM; with hIL-6 mRNA, 300 to 3000 nM; in test [2] it was at most 300 nM.
As to `Cc1noc(C)c1-c1cc(-c2c(C)nn(C)c2C)c2[nH]ncc2c1` [Example Compound 127, 3,5-dimethyl-4-(7-(1,3,5-trimethyl-1H-pyrazol-4-yl)-1H-indazol-5-yl)isoxazole], the IC50 (in test [1]; in the test with Human AML MV-4-11 cells; with hIL-6 mRNA; in test [2]) was at most 300 nM in each case.
Regarding `Cc1noc(C)c1-c1cc(-c2cccnc2C(F)(F)F)c2[nH]ncc2c1` [Example Compound 128, 3,5-dimethyl-4-(7-(2-(trifluoromethyl)pyridin-3-yl)-1H-indazol-5-yl)isoxazole], the IC50 in test [1] is 300 to 3000 nM; with Human AML MV-4-11 cells it was 300 to 3000 nM; with hIL-6 mRNA it was at most 300 nM; in test [2] it was 300 to 3000 nM.
As to `Cc1noc(C)c1-c1cc(-c2cnccc2C(F)(F)F)c2[nH]ncc2c1` [Example Compound 129, 3,5-dimethyl-4-(7-(4-(trifluoromethyl)pyridin-3-yl)-1H-indazol-5-yl)isoxazole], the IC50 (in test [1]; with Human AML MV-4-11 cells; with hIL-6 mRNA; in test [2]) was 300 to 3000 nM throughout.
On to `Cc1nc2c(-c3c(Cl)cncc3Cl)cc(-c3c(C)noc3C)cc2[nH]1` [Example Compound 130, 4-(4-(3,5-dichloro-pyridin-4-yl)-2-methyl-1H-benzo[d]imidazol-6-yl)-3,5-dimethyl isoxazole], for which the IC50 in test [1] was 300 to 3000 nM; in the test with Human AML MV-4-11 cells it was 300 to 3000 nM; with hIL-6 mRNA, at most 300 nM; in test [2] it was at most 300 nM.
Turning to `COc1ncc(F)cc1-c1cc(-c2c(C)noc2C)cc2[nH]c(C)nc12` [Example Compound 131, 4-(4-(5-fluoro-2-methoxy-pyridin-3-yl)-2-methyl-1H-benzo[d]imidazol-6-yl)-3,5-dimethyl isoxazole], the IC50 (in test [1]; with Human AML MV-4-11 cells; in the test on hIL-6 mRNA; in test [2]) was 300 to 3000 nM throughout.
Consider `Cc1nc2c(-c3ccc(F)c(F)c3C)cc(-c3c(C)noc3C)cc2[nH]1` [Example Compound 132, 4-(4-(3,4-difluoro-2-methyl-phenyl)-2-methyl-1H-benzo[d]imidazol-6-yl)-3,5-dimethyl isoxazole], for which the IC50 (in test [1]; in the test with Human AML MV-4-11 cells; in the test on hIL-6 mRNA; in test [2]) was 300 to 3000 nM each time.
As to `COc1nc(C)ccc1-c1cc(-c2c(C)noc2C)cc2[nH]c(C)nc12` [Example Compound 135, 4-(4-(2-methoxy-6-methyl-pyridin-3-yl)-2-methyl-1H-benzo[d]imidazol-6-yl)-3,5-dimethyl isoxazole], the IC50 in test [1] is at most 300 nM; with Human AML MV-4-11 cells it was 300 to 3000 nM; with hIL-6 mRNA, 300 to 3000 nM; in test [2], at most 300 nM.
`Cc1nc2c(-c3ccc4ocnc4c3)cc(-c3c(C)noc3C)cc2[nH]1` [Example Compound 136, 5-(6-(3,5-dimethyl-isoxazol-4-yl)-2-methyl-1H-benzo[d]imidazol-4-yl)benzo[d] oxazole]: the IC50 was at most 300 nM in test [1], 300 to 3000 nM in the test on Human AML MV-4-11 cells, 300 to 3000 nM with hIL-6 mRNA and at most 300 nM in test [2].
As for `Cc1nc2c(-c3cccc4ccccc34)cc(-c3c(C)noc3C)cc2[nH]1` [Example Compound 138, 3,5-dimethyl-4-(2-methyl-4-(naphthalen-1-yl)-1H-benzo[d]imidazol-6-yl)isoxazole], the IC50 in test [1] is 300 to 3000 nM; with Human AML MV-4-11 cells it was 300 to 3000 nM; with hIL-6 mRNA, at most 300 nM; in test [2], at most 300 nM.
In the case of `Cc1nc2c(-c3csnc3C)cc(-c3csnc3C)cc2[nH]1` [Example Compound 139, 4,4′-(2-methyl-1H-benzo[d]imidazole-4,6-diyl)bis(3-methylisothiazole)], the IC50 fell in the range of 3000 to 30000 nM in test [1], 300 to 3000 nM in the test on hIL-6 mRNA and 300 to 3000 nM in test [2]. In addition, in the test with Human AML MV-4-11 cells, the “Cell Proliferation activity” value is listed as “Not active”.
Take `Cc1noc(C)c1-c1cc(NCCc2ccccc2)c2nc[nH]c2c1` [Example Compound 142, 6-(3,5-dimethyl-isoxazol-4-yl)-N-phenethyl-1H-benzo[d] imidazol-4-amine]: the IC50 (in test [1]; in the test on Human AML MV-4-11 cells; in the test with hIL-6 mRNA; in test [2]) was 300 to 3000 nM in each case.
As for `Cc1nc2c(Nc3cccnc3C)cc(-c3c(C)noc3C)cc2[nH]1` [Example Compound 143, 6-(3,5-dimethylisoxazol-4-yl)-2-methyl-N-(2-methylpyridin-3-yl)-1H-benzo[d]imidazol-4-amine], the IC50 in test [1] is 300 to 3000 nM; in the test on Human AML MV-4-11 cells it was 300 to 3000 nM; in the test with hIL-6 mRNA, 300 to 3000 nM; in test [2] it was at most 300 nM.
In the case of `Cc1nc2c(-c3ccccc3Cl)cc(-c3c(C)noc3C)cc2[nH]1` [Example Compound 144, 4-(4-(2-chloro-phenyl)-2-methyl-1H-benzo[d]imidazol-6-yl)-3,5-dimethyl isoxazole], the IC50 (in test [1]; with Human AML MV-4-11 cells; in the test with hIL-6 mRNA; in test [2]) was at most 300 nM in each case.
`Cc1nc2c(-c3cc4ccccc4s3)cc(-c3c(C)noc3C)cc2[nH]1` [Example Compound 145, 4-(4-(benzo[b]thiophen-2-yl)-2-methyl-1H-benzo[d]imidazol-6-yl)-3,5-dimethyl isoxazole]: the IC50 in test [1] is 300 to 3000 nM; with Human AML MV-4-11 cells, at most 300 nM; in the test with hIL-6 mRNA, 300 to 3000 nM; in test [2] it was 300 to 3000 nM.
`Cc1nc2c(N3CCC3=O)cc(-c3c(C)noc3C)cc2[nH]1` [Example Compound 147, 1-(6-(3,5-dimethyl-isoxazol-4-yl)-2-methyl-1H-benzo[d]imidazol-4-yl)azetidin-2-one]: the IC50 (in test [1]; with hIL-6 mRNA; in test [2]) was 300 to 3000 nM throughout. For the same compound, in the test with Human AML MV-4-11 cells, the “Cell Proliferation activity” value is “Not active”.
Consider `Cc1nc2c(Oc3ccccc3)cc(-c3c(C)noc3C)cc2[nH]1` [Example Compound 148, 3,5-dimethyl-4-(2-methyl-4-phenoxy-1H-benzo[d]imidazol-6-yl)isoxazole], for which the IC50 in test [1] was at most 300 nM; with Human AML MV-4-11 cells, 300 to 3000 nM; in the test with hIL-6 mRNA, at most 300 nM; in test [2], at most 300 nM.
As to `Cc1noc(C)c1-c1cc(-c2c(C)noc2C)c2nc(NCCO)[nH]c2c1` [Example Compound 150, 2-((4,6-bis(3,5-dimethyl-isoxazol-4-yl)-1H-benzo[d]imidazol-2-yl)amino) ethanol], the IC50 in test [1] is 300 to 3000 nM; with Human AML MV-4-11 cells, 300 to 3000 nM; with hIL-6 mRNA, 300 to 3000 nM; in test [2], at most 300 nM.
With `Cc1noc(C)c1-c1cc(N(CCc2ccccc2)CCc2ccccc2)c2nc[nH]c2c1` [Example Compound 151, 6-(3,5-dimethyl-isoxazol-4-yl)-N,N-diphenethyl-1H-benzo[d] imidazol-4-amine], the IC50 (in test [1]; in the test on Human AML MV-4-11 cells; with hIL-6 mRNA; in test [2]) was 300 to 3000 nM each time.
Regarding `COc1cccc(-c2cc(-c3c(C)noc3C)cc3[nH]c(C)nc23)c1F` [Example Compound 152, 4-(4-(2-fluoro-3-methoxy-phenyl)-2-methyl-1H-benzo[d]imidazol-6-yl)-3,5-dimethyl isoxazole], the IC50 was 300 to 3000 nM in test [1], 300 to 3000 nM with Human AML MV-4-11 cells, at most 300 nM in the test with hIL-6 mRNA and at most 300 nM in test [2].

(Values after patent publication US9999616B2 (ZENITH EPIGENETICS LTD., priority 2013, dated 2018).)
